Legend:
pseudolysin (PLN) = biological target: T1, pseudolysin (PLN) (Pseudomonas aeruginosa, UniProt P14756); assay: Inhibition of pseudolysin (PLN), substrate McaRPPGFSAFK(Dnp)-OH; format: biochemical
T1 construct: purchased Calbiochem (San Diego, CA, USA)
Protocol: McaPLGL(Dpa)AR-NH2 was used as a substrate for MMP-9 and MMP-14, while McaRPPGFSAFK(Dnp)-OH was used as substrate for ALN, PLN and TLN. The reaction velocities/initial rates (v) were determined at 37 °C, at an excitation wavelength of 320 nm and an emission wavelength of 405 nm with a slit width of 10 nm using either a Perkin Elmer LS 50 Luminescence spectrometer and the FL WinLab Software Package (Perkin Elmer) or a Clario Star microplate reader (CLARIOstar® BMG LABTECH).
The test compounds were dissolved in 100% DMSO giving a concentration of 10 mM. A fixed substrate concentration of 4.0 µM in a total volume of 100 µL 0.1 M Hepes pH 7.5, 10 mM CaCl2, 0.005% Brij-35 and 1.0% DMSO, were used in all assays, except for ALN where the substrate concentration was 5.0 µM. The fixed enzyme concentrations were as follows; 0.05 nM MMP-9, 1.0 nM MMP-14, 1.4 nM ALN, 0.5 nM PLN and 0.21 nM TLN. Time-dependent inhibitory experiments without and with 100 μM of testing compounds were performed as follows. Compounds were either pre-incubated with the proteases for 15, 30 and 45 min at room temperature and the enzymatic reaction was started by adding the substrate, or not pre-incubated, i.e., the reaction was started by adding the protease to the mixture of substrate and compound. Control tests without compound present were performed in the same way. The reaction was followed for 30 min at 37 °C.
Enzymes with and without inhibitor were pre-incubated for 30 min at room temperature, and initial rate assays were performed as described above. Assays were performed using a Clario Star microplate reader (CLARIOstar® BMG LABTECH). The IC50 values were calculated in Graph Pad Prism 5 using Equation (1):(1) vi/v0=1/(1+10^(pIC50−pI)) where vi is the enzyme activity in the presence of inhibitor, v0 the activity in the absence of inhibitor, pI = −log [Inhibitor] in M and pIC50 = −log IC50 in M. All experiments were performed in at least triplicate.

MMP-14 = biological target: T2, MMP-14 (Homo sapiens, UniProt P50281); assay: Time-dependent slow, reversible/irreversible binding of TPA to MMP-14 (pre-incubation and micro-dialysis); format: biochemical; settings: for vi/v0 MMP-14: 100 μM TPA
T2 construct: human MT1-MMP/MMP-14 (catalytic domain); purchased Calbiochem (San Diego, CA, USA)
Protocol: We tested if TPA is a time-dependent irreversible or reversible inhibitor of MMP-14. In these experiments, two different concentrations of MMP-14 (45 and 5.6 nM) were pre-incubated up to 48 min at 37 °C with 10.0 and 11.1 μM of TPA, respectively, as described in Materials and Methods. As controls, the same amount of MMP-14 (without TPA but with the same concentration of DMSO) was identically pre-incubated at 37 °C. […] In the presence of 100 μM TPA, vi/v0 was 0.61 after 2 min and 0.03 after 11 min pre-incubation at 37 °C. To determine whether the observed time-dependent inhibition was due to reversible or irreversible inhibition, a solution of 45 nM MMP-14 was first pre-incubated for approximately 40 min at 37 °C with 10 μM TPA (1% DMSO in assay buffer, pH 7.5). As a control, MMP-14 (without TPA but with the same concentration of DMSO) was also pre-incubated for approximately 40 min at 37 °C. […]
In pre-incubation tests with high concentration of MMP-14, 90 μL 50 nM MMP-14 was mixed with 9.0 μL 110 μM TPA (dissolved in 0.1 M Hepes pH 7.5 containing 10 mM CaCl2, 0.005% Brij-35 and 10% DMSO) and incubated at 37 °C for up to 48 min. […] At different time points, 10 μL of the enzyme (with and without TPA) was added to 90 μL of 0.1 M Hepes pH 7.5 containing 10 mM CaCl2, 0.005% Brij-35 and 11.1 μM ES001 and the initial rate reaction velocity (v) was determined as described in Section 3.4. using a Perkin Elmer LS 50 Luminescence spectrometer. […]
In pre-incubation tests with a low concentration of MMP-14, 60 μL 50 nM MMP-14 was mixed with 420 μL 0.1 M Hepes pH 7.5 (containing 10 mM CaCl2, 0.005% Brij-35) and 60 μL of either 0.1 M Hepes pH 7.5 containing 10 mM CaCl2, 0.005% Brij-35 and 10% DMSO (control) or 60 μL 100 μM TPA (dissolved in 0.1 M Hepes pH 7.5 containing 10 mM CaCl2, 0.005% Brij-35 and 10% DMSO). At different time points, 90 μL of the enzyme (with and without TPA) was mixed with 10 μL 100 μM ES001 and the initial rate of the reaction was determined as described above. […]

T1 sequence (P14756 198-498): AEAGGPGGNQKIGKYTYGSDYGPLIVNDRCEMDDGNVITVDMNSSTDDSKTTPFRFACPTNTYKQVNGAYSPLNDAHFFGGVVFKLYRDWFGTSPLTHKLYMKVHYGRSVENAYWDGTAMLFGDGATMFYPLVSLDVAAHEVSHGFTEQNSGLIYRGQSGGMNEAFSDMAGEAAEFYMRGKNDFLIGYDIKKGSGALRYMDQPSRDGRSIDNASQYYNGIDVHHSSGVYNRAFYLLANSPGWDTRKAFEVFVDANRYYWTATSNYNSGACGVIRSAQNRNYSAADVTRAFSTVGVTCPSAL

c1ccc(CN(Cc2ccccn2)Cc2ccccn2)nc1 [TPA, tri(2-pyridinemethyl)amine, reference compound]
Ki (pseudolysin (PLN)): 5 ± 2 µM | vi/v0 MMP-14 (MMP-14; 2 min pre-incubation at 37 °C): 0.61 | vi/v0 MMP-14 (MMP-14; 11 min pre-incubation at 37 °C): 0.03 | type of inhibition of MMP-14 (MMP-14; pre-incubation 37 °C, micro-dialysis 4 °C): slow, reversible inhibitor

From publication PMC8746695, “Zinc-Chelating Compounds as Inhibitors of Human and Bacterial Zinc Metalloproteases” (Molecules, 2021)
